Among the data in ChEMBL document CHEMBL2021914, “Inhibition of platelet adhesion by peptidomimetics mimicking the interactive β-hairpin of glycoprotein Ibα” (Bioorg Med Chem Lett, 2012) are Activity and inhibition values, retold here.

Calls of active or inactive are those of the source. The calls are words filed in the database; no cut-off is given here. Where a SMILES comes first, the peptide text is derived from it. Bridges are numbered along the chain shown (N, C = ends).

Assay [1] concerns the target von Willebrand factor (Homo sapiens) (UniProt P04275). Description: Inhibition of GPIbalpha-human vWF binding assessed as platelet rolling velocity at 100 uM preincubated for 5 mins by parallel plate flow assay with real time imaging microscopy (reference value: 7.1 um/sec).
For assay [2] the target is unchanged. Briefly: Inhibition of GPIbalpha-vWF binding assessed as ristocetin-induced platelet agglutination at 100 uM after 2 mins by static agglutination assay using washed platelets from male (reference value: 58%). Details: scale not given: the % may be the effect or the level left.
Assay [3] has the same target. Description: Inhibition of GPIbalpha-vWF binding assessed as ristocetin-induced platelet agglutination at 100 uM after 2 mins by static agglutination assay using washed platelets from female (reference value: 61.7%). Details: scale not given: the % may be the effect or the level left.
The target is the same in assay [4]. Description: Inhibition of GPIbalpha-vWF binding assessed as constant shear stress at 120 dynes/cm'2-induced platelet agglutination at 10 uM preincubated for 5 mins by cone and plate rheometer analysis relative to control using male platelet rich plasma (reference value: 100%). More on the design: scale not given: the % may be the effect or the level left.
For assay [5] the target is unchanged. Briefly: Inhibition of GPIbalpha-vWF binding assessed as constant shear stress at 120 dynes/cm'2-induced platelet agglutination at 10 uM preincubated for 5 mins by cone and plate rheometer analysis relative to control using female platelet rich plasma (reference value: 100%). More on the design: scale not given: the % may be the effect or the level left.
Assay [6] has the same target. Description: Inhibition of GPIbalpha-human vWF binding assessed as decrease in arterial shear-induced platelet adhesion to vWF measuring number of platelets adhered during flow at 100 uM preincubated for 5 mins by parallel plate flow assay with real time imaging microscopy.
The target is the same in assay [7]. Briefly: Inhibition of GPIbalpha-human vWF binding assessed as decrease in arterial shear-induced platelet adhesion to vWF measuring number of platelets adhered after flow at 100 uM preincubated for 5 mins by parallel plate flow assay with real time imaging microscopy.
The target is the same in assay [8]. Description: Inhibition of GPIbalpha-vWF binding assessed as inhibition of ristocetin-induced platelet agglutination at 100 uM after 2 mins by static agglutination assay.
Assay [9] has the same target. Briefly: Inhibition of GPIbalpha-vWF binding assessed as ristocetin-induced platelet agglutination at 1 uM after 2 mins by static agglutination assay using washed platelets (reference value: 66.5%). More on the design: scale not given: the % may be the effect or the level left.
For assay [10] the target is unchanged. Description: Inhibition of GPIbalpha-vWF binding assessed as ristocetin-induced platelet agglutination at 10 uM after 2 mins by static agglutination assay using washed platelets (reference value: 66.5%). Details: scale not given: the % may be the effect or the level left.
For assay [11] the target is unchanged. Description: Inhibition of GPIbalpha-vWF binding assessed as ristocetin-induced platelet agglutination at 100 uM after 2 mins by static agglutination assay using washed platelets (reference value: 66.5%). More on the design: scale not given: the % may be the effect or the level left.
For assay [12] the target is unchanged. Briefly: Inhibition of GPIbalpha-vWF binding assessed as ristocetin-induced platelet agglutination at 1 uM after 2 mins by static agglutination assay using platelet rich plasma (reference value: 76.3%). More on the design: scale not given: the % may be the effect or the level left.
The target is the same in assay [13]. Description: Inhibition of GPIbalpha-vWF binding assessed as ristocetin-induced platelet agglutination at 10 uM after 2 mins by static agglutination assay using platelet rich plasma (reference value: 76.3%). Details: scale not given: the % may be the effect or the level left.
The target is the same in assay [14]. Description: Inhibition of GPIbalpha-vWF binding assessed as ristocetin-induced platelet agglutination at 100 uM after 2 mins by static agglutination assay using platelet rich plasma (reference value: 76.3%). Details: scale not given: the % may be the effect or the level left.
Assay [15] shares this target. Description: Inhibition of GPIbalpha-vWF binding assessed as inhibition of ristocetin-induced platelet agglutination at 100 uM after 2 mins by static agglutination assay using washed platelets from male.
Assay [16] has the same target. Briefly: Inhibition of GPIbalpha-vWF binding assessed as inhibition of ristocetin-induced platelet agglutination at 100 uM after 2 mins by static agglutination assay using washed platelets from female.

Sequence of von Willebrand factor (Homo sapiens) (P04275 whole entry): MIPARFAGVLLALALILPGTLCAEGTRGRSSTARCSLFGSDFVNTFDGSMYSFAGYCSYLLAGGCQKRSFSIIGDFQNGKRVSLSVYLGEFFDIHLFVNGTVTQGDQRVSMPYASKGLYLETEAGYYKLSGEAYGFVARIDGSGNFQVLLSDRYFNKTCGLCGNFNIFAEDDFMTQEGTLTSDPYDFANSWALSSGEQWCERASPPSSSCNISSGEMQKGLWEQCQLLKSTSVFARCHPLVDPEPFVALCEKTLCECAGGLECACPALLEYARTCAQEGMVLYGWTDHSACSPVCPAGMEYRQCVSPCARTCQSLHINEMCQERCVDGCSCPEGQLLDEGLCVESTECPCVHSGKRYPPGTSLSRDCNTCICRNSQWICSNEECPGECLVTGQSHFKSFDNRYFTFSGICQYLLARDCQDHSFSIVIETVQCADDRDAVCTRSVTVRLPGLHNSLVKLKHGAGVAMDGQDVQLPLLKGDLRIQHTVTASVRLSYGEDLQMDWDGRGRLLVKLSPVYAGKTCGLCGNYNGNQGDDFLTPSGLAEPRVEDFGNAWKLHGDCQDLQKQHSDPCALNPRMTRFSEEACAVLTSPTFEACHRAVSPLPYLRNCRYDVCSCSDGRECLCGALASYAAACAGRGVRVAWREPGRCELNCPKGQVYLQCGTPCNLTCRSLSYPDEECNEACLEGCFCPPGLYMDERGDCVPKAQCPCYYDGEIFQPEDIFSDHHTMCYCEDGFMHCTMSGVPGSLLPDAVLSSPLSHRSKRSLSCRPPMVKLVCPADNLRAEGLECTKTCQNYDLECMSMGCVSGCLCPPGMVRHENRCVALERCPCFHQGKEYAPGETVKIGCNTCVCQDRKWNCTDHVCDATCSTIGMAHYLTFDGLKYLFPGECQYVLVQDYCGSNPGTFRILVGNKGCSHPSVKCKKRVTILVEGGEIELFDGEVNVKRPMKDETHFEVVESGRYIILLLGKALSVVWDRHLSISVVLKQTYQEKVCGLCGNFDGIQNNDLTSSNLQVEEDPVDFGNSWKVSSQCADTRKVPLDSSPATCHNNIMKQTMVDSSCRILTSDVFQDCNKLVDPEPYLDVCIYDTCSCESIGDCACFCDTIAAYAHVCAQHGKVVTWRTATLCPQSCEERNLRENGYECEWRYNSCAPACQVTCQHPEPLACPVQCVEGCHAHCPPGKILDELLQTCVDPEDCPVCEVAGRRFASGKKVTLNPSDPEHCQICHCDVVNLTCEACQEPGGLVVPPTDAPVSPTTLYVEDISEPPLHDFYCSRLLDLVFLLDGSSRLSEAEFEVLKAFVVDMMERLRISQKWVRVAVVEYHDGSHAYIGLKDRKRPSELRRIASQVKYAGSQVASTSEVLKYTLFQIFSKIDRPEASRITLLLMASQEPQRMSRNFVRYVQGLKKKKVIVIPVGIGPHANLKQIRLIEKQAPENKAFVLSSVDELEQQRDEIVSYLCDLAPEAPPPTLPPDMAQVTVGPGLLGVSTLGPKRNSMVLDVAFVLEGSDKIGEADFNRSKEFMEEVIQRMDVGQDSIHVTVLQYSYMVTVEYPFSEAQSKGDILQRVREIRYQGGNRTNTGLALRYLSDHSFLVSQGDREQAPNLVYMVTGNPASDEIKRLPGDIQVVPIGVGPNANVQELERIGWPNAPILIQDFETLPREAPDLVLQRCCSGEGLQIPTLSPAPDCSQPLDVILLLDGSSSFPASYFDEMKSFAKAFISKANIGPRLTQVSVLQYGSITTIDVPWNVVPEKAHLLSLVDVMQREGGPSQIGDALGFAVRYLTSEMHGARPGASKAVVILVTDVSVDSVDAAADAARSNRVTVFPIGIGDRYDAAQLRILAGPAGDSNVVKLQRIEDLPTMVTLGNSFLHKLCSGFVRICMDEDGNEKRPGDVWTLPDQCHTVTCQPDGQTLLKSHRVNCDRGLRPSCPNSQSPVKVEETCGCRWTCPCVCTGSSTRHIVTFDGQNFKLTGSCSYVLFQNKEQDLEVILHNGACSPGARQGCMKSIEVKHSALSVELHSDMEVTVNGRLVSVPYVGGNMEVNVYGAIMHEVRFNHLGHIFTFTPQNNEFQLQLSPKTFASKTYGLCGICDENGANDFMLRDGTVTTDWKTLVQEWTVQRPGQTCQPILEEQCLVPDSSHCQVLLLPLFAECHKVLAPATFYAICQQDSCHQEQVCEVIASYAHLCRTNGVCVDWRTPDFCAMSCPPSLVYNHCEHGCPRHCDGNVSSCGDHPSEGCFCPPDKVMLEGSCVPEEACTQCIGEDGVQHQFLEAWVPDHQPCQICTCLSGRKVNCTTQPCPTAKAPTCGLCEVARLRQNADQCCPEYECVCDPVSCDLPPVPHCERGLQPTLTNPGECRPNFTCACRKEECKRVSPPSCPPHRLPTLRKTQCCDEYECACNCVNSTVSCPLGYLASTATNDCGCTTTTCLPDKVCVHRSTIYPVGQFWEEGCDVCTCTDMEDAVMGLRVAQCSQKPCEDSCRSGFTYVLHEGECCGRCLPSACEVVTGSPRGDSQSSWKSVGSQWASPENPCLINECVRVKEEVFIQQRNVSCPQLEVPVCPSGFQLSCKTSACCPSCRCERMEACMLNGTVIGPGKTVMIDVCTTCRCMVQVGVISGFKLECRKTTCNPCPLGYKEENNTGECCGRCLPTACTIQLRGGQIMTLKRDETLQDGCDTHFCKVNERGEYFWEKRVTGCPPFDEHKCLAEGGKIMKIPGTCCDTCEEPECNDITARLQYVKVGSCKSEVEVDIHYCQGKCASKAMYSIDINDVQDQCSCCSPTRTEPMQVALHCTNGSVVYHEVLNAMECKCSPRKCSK

Take `CC(C)[C@H](NC(=O)CNC(=O)[C@H](CCC(N)=O)NC(=O)[C@H](CCCCN)NC(=O)[C@H](Cc1c[nH]c2ccccc12)NC(=O)[C@H]1CCCN1C(=O)[C@@H]1CCCN1C(=O)[C@@H](NC(=O)[C@H](C)NC(=O)[C@H](CCCCN)NC(=O)[C@@H](NC(=O)[C@@H](N)CC(=O)O)C(C)C)C(C)C)C(=O)O`: the Activity stood at 5.6 um/s in assay [1]; 58.8% in [2]; 59.7% in assay [3]; 111% in assay [4]; 99.7% in assay [5].
By inhibition is commonly meant the drop in the measured response relative to a control, in per cent. For the compound H-PGPVYVWKQGVDVKAVTSN-OH, the inhibition entry in assay [6] and in assay [7] was “inactive” throughout.
`CC(C)[C@@H]1NC(=O)CNC(=O)[C@@H]2CSSC[C@H](NC(=O)[C@H](C(C)C)NC(=O)[C@H](CC(=O)O)NC1=O)C(=O)N[C@@H](C)C(=O)N[C@@H](C(C)C)C(=O)N1CCC[C@H]1C(=O)N1CCC[C@@H]1C(=O)N[C@@H](Cc1c[nH]c3ccccc13)C(=O)N[C@@H](CCCCN)C(=O)N2`: the inhibition stood at 43.9% in [8], 44.8% in [15] and 17.8% in assay [16]. The Activity in assay [9] stood at 57.5%; in assay [10] it was 46%; in assay [11], 37.3%; in [12] it was 61.7%; in [13] it was 57.3%; in assay [14], 46.7%. Moreover, the Activity in [1] is 8.1 um/s; in assay [2], 32%; in assay [3], 50.7%; in [4], 107%; in [5], 122%.
As for `CC(C)[C@@H]1NC(=O)CNC(=O)[C@H](CCC(N)=O)NC(=O)[C@H](CCCCN)NC(=O)[C@H](Cc2c[nH]c3ccccc23)NC(=O)[C@H](C(C)C)NC(=O)[C@H](Cc2ccc(O)cc2)NC(=O)[C@H](C(C)C)NC(=O)[C@@H]2CCCN2C(=O)CNC(=O)[C@@H]2CCCN2C(=O)[C@H](CC(N)=O)NC(=O)[C@H](CO)NC(=O)[C@H]([C@@H](C)O)NC(=O)[C@H](C(C)C)NC(=O)[C@H](C)NC(=O)[C@H](CCCCN)NC(=O)[C@H](C(C)C)NC(=O)[C@H](CC(=O)O)NC1=O` (cyclo(AVTSNPGPVYVWKQGVDVK)), the inhibition in assay [8] was 40.5%. Moreover, the inhibition result in assay [6] and in assay [7] was “Active” in each case.
With `CC(C)[C@H](NC(=O)CNC(=O)[C@@H]1CSSC[C@H](NC(=O)[C@@H](NC(=O)[C@@H](N)CC(=O)O)C(C)C)C(=O)N[C@@H](C)C(=O)N[C@@H](C(C)C)C(=O)N2CCC[C@H]2C(=O)N2CCC[C@@H]2C(=O)N[C@@H](Cc2c[nH]c3ccccc23)C(=O)N[C@@H](CCCCN)C(=O)N1)C(N)=O`, the inhibition in [8] was found to be 28.5%. Moreover, the Activity is 7 um/s in assay [1], 36% in assay [2] and 57.3% in assay [3].
Turning to `CC(C)C[C@@H]1NC(=O)[C@H](Cc2cnc[nH]2)NC(=O)[C@H](CO)NC(=O)[C@H](C)NC(=O)[C@H](C(C)C)NC(=O)[C@H](CCCCN)NC(=O)[C@H](CO)NC(=O)[C@H](C(C)C)NC(=O)[C@H](CCC(=O)O)NC(=O)[C@H]2CCCN2C(=O)[C@@H]2CCCN2C(=O)[C@H](CC(N)=O)NC(=O)[C@H](C(C)C)NC(=O)[C@H](CCC(=O)O)NC1=O`, in assay [8], the inhibition is 10.4%.
For `CC(C)C[C@@H]1NC(=O)[C@H](Cc2cnc[nH]2)NC(=O)[C@H](CO)NC(=O)[C@H](C)NC(=O)[C@H](C(C)C)NC(=O)[C@H](CCCCN)NC(=O)[C@H](CO)NC(=O)[C@H](C(C)C)NC(=O)[C@H](CCC(=O)O)NC(=O)[C@@H](N)CSSC[C@@H](C(=O)N[C@@H](CC(=O)O)C(=O)N[C@@H](CCCCN)C(N)=O)NC(=O)[C@H](CC(N)=O)NC(=O)[C@H](C(C)C)NC(=O)[C@H](CCC(=O)O)NC1=O` (H-CEVSKVASHLEVNCDK-NH2; disulfide 1-14), in assay [8], the inhibition is 7.1%.
Still for that read-out and setting: to `CC(C)[C@@H]1NC(=O)CNC(=O)[C@H](CCC(N)=O)NC(=O)[C@H](CCCCN)NC(=O)[C@H](Cc2c[nH]c3ccccc23)NC(=O)[C@H](C(C)C)NC(=O)[C@H]2CCCN2C(=O)[C@@H]2CCCN2C(=O)[C@H]([C@@H](C)O)NC(=O)[C@H](C(C)C)NC(=O)[C@H](C)NC(=O)[C@H](CCCCN)NC(=O)[C@H](C(C)C)NC(=O)[C@H](CC(=O)O)NC1=O` belongs 8.9%; to `CC(C)[C@@H]1NC(=O)CNC(=O)[C@@H]2CSSC[C@H](NC(=O)[C@H](C(C)C)NC(=O)[C@H](CC(=O)O)NC1=O)C(=O)N[C@@H](C)C(=O)N[C@@H](C(C)C)C(=O)N[C@@H]([C@@H](C)O)C(=O)N1CCC[C@H]1C(=O)N1CCC[C@@H]1C(=O)N[C@@H](C(C)C)C(=O)N[C@@H](Cc1c[nH]c3ccccc13)C(=O)N[C@@H](CCCCN)C(=O)N2`, 44.6%; to `CC(=O)N[C@@H](CO)C(=O)N[C@@H](Cc1cnc[nH]1)C(=O)N[C@@H](CC(C)C)C(=O)N[C@@H](CCC(=O)O)C(=O)N[C@H](C(=O)N[C@@H](CC(N)=O)C(=O)N1CCC[C@H]1C(=O)N1CCC[C@@H]1C(=O)N[C@@H](CCC(=O)O)C(=O)N[C@H](C(=O)N[C@@H](CO)C(=O)N[C@@H](CCCCN)C(=O)N[C@H](C(=O)N[C@@H](C)C(=O)O)C(C)C)C(C)C)C(C)C`, 42.1%.
